Data published in ChEMBL document CHEMBL5365438, “2-Substituted 1,5-benzothiazepine-based HDAC inhibitors exert anticancer activities on human solid and acute myeloid leukemia cell lines” (Bioorg Med Chem, 2023).
The source made the active and inactive calls. The calls are words filed in the database; no cut-off is given here.

Assays:
[1] = tested on: HCT-116; experiment: Induction of apoptosis in human HCT-116 cells assessed as increased p21 protein expression level at 1 to 5 uM incubated for 24 hrs by immunoblotting analysis; assay type: functional, cell-based; conditions: dose 1-5 µM
[2] = tested on: U-937; experiment: Induction of cell cycle arrest in human U-937 assessed as decrease accumulation of cells in G1 phase at 1 to 5 uM incubated for 24 hrs by FACS analysis; assay type: functional, cell-based; conditions: dose 1-5 µM
[3] = tested on: HCT-116; experiment: Cytotoxicity against human HCT-116 cells assessed as cell viability incubated for 24 hrs by MTT assay; assay type: functional, cell-based; conditions: HCT-116, 24 h
[4] = target: T1, Histone deacetylase 1 (Homo sapiens, UniProt Q13547); experiment: Inhibition of HDAC1 (unknown origin) at 10 uM using fluorogenic peptide as substrate pre-incubated for 15 mins followed by substrate addition incubated for 30 mins by fluorescence assay relative to control; conditions: time 45.0 min
T1 sequence (Q13547 whole entry, the tested form may be a part): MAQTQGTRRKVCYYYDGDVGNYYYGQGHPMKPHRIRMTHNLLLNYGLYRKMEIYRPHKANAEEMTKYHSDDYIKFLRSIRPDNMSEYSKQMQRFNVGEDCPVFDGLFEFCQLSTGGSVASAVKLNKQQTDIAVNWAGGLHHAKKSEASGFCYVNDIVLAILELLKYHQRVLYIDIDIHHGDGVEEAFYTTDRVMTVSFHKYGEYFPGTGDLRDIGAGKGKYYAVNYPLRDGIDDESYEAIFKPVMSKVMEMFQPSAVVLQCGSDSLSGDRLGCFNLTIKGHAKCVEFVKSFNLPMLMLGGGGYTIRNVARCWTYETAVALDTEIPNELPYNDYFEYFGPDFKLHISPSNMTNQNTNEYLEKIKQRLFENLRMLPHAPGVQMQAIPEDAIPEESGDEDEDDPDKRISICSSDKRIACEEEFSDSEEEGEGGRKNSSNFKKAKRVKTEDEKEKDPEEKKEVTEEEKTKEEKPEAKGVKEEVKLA

[5] = target: T1, Histone deacetylase 1; experiment: Inhibition of HDAC1 (unknown origin) using fluorogenic peptide as the substrate containing residues 379-382 of p53 pre-incubated for 15 mins followed by substrate addition incubated for 30 mins by multimode plate reader
[6] = target: T2, Histone deacetylase (Homo sapiens) (UniProt Q13547+O15379+Q9UBN7+Q92769+Q9UQL6+Q8WUI4+Q9BY41+Q96DB2+P56524+Q9UKV0+Q969S8); experiment: Inhibition of HDAC in human U-937 cells assessed as upregulation of histone H3 acetylation at lysine 14 residue at 1 uM incubated for 24 hrs by immunoblotting analysis; assay type: cell-based
[7] = tested on: U-937; experiment: Induction of apoptosis in human U-937 cells assessed as increased p21 protein expression level at 1 to 5 uM incubated for 24 hrs by immunoblotting analysis; assay type: functional, cell-based; conditions: dose 1-5 µM
[8] = target: T2, Histone deacetylase (Homo sapiens); experiment: Inhibition of HDAC in human U-937 cells assessed as upregulation of histone H3 acetylation at lysine 14 residue at 5 uM incubated for 24 hrs by immunoblotting analysis; assay type: cell-based
[9] = tested on: HCT-116; experiment: Induction of cell cycle arrest in human HCT-116 assessed as decrease accumulation of cells in G1 phase at 1 to 5 uM incubated for 24 hrs by FACS analysis; assay type: functional, cell-based; conditions: dose 1-5 µM
[10] = tested on: U-937; experiment: Induction of cell cycle arrest in human U-937 assessed as increase accumulation of cells in G2/M phase at 1 to 5 uM incubated for 24 hrs by FACS analysis; assay type: functional, cell-based; conditions: dose 1-5 µM
[11] = tested on: HCT-116; experiment: Induction of cell cycle arrest in human HCT-116 assessed as accumulation of cells in G2/M phase at 1 to 5 uM incubated for 24 hrs by FACS analysis relative to SAHA; assay type: functional; conditions: dose 1-5 µM
[12] = tested on: U-937; experiment: Cytotoxicity against human U-937 cells assessed as cell death at 1 to 5 uM incubated for 24 hrs by PI staining based FACS analysis relative to control; assay type: functional; conditions: dose 1-5 µM
[13] = target: T3, Protein deacetylase HDAC6 (Homo sapiens, UniProt Q9UBN7); experiment: Inhibition of HDAC6 (unknown origin) using fluorogenic peptide as the substrate containing residues 379-382 of p53at 10 uM pre-incubated for 15 mins followed by substrate addition incubated for 30 mins by multimode plate reader
T3 sequence (Q9UBN7 whole entry): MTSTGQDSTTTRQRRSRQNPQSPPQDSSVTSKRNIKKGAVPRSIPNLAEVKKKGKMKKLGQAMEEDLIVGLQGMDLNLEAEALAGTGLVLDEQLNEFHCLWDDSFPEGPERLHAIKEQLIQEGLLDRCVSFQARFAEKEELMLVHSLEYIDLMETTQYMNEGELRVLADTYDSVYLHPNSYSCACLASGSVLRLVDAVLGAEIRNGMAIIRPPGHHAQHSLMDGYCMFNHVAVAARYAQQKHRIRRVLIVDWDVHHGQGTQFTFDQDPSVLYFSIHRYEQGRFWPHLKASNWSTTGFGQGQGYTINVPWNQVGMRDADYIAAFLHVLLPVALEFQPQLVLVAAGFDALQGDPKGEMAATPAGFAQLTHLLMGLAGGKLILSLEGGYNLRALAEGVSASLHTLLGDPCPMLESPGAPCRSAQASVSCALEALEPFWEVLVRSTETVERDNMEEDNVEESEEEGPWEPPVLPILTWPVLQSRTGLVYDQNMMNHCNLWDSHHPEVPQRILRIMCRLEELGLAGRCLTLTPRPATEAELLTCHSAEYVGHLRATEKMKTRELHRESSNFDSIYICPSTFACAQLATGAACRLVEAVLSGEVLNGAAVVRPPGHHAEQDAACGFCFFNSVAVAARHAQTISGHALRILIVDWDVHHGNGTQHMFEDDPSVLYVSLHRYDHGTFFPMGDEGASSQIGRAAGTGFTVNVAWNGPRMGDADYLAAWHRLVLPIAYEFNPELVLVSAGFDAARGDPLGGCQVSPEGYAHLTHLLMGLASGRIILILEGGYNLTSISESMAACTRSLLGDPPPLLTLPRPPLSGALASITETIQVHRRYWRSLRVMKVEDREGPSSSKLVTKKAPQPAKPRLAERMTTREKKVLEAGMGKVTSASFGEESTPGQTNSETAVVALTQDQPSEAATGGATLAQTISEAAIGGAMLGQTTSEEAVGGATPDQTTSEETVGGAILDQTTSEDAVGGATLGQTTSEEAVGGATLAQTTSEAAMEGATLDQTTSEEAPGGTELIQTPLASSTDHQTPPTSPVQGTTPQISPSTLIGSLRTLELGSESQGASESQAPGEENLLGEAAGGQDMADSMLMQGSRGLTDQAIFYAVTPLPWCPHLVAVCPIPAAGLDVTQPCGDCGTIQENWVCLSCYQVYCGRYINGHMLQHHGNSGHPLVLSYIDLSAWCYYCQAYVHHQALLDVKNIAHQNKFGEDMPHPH

[14] = target: T4, Protein deacetylase HDAC6 (Homo sapiens) (UniProt Q9UBN7); experiment: Inhibition of HDAC6 (unknown origin) at 10 uM using fluorogenic peptide as substrate pre-incubated for 15 mins followed by substrate addition incubated for 30 mins by fluorescence assay; conditions: time 45.0 min
T4 sequence (whole entry): T3 sequence (Q9UBN7 whole entry)

[15] = target: Histone deacetylase; assay type: subcellular, Homo sapiens, Nucleus; conditions: hela
Description: Inhibition of HDAC in human HeLa cell nuclear extract using Kac fluorogenic peptide as substrate containing residues 379-382 of p53 by fluorescence assay

[16] = target: T2, Histone deacetylase (Homo sapiens); experiment: Inhibition of HDAC in human HCT-116 cells assessed as upregulation of histone H3 acetylation at lysine 14 residue at 1 uM incubated for 24 hrs by immunoblotting analysis; assay type: cell-based
[17] = tested on: HCT-116; experiment: Induction of cell cycle arrest in human HCT-116 assessed as decrease accumulation of cells in S phase at 1 to 5 uM incubated for 24 hrs by FACS analysis; assay type: functional, cell-based; conditions: dose 1-5 µM
[18] = tested on: U-937; experiment: Cytotoxicity against human U-937 cells assessed as cell viability incubated for 24 hrs by MTT assay; assay type: functional, cell-based; conditions: U-937, 24 h
[19] = tested on: U-937; experiment: Induction of cell cycle arrest in human U-937 assessed as decrease accumulation of cells in S phase at 1 to 5 uM incubated for 24 hrs by FACS analysis; assay type: functional, cell-based; conditions: dose 1-5 µM
[20] = target: T2, Histone deacetylase (Homo sapiens); experiment: Inhibition of HDAC in human HCT-116 cells assessed as upregulation of acetyl alpha-tubulin level at 1 to 5 uM incubated for 24 hrs by immunoblotting analysis; assay type: cell-based; conditions: dose 1-5 µM
[21] = target: T2, Histone deacetylase (Homo sapiens); experiment: Inhibition of HDAC in human U-937 cells assessed as upregulation of acetyl alpha-tubulin level at 5 uM incubated for 24 hrs by immunoblotting analysis; assay type: cell-based
[22] = tested on: U-937; experiment: Induction of cell cycle arrest in human U-937 assessed as decrease accumulation of cells in G1 phase at 5 uM incubated for 24 hrs by FACS analysis; assay type: functional, cell-based
[23] = tested on: U-937; experiment: Induction of cell cycle arrest in human U-937 assessed as reduced accumulation of cells in S phase at 1 uM incubated for 24 hrs by FACS analysis; assay type: functional, cell-based
[24] = target: T5, Histone deacetylase 8 (Homo sapiens) (UniProt Q9BY41); experiment: Inhibition of HDAC8 (unknown origin) at 10 uM using fluorogenic peptide as substrate pre-incubated for 15 mins followed by substrate addition incubated for 30 mins by fluorescence assay; conditions: time 45.0 min
T5 sequence (whole entry): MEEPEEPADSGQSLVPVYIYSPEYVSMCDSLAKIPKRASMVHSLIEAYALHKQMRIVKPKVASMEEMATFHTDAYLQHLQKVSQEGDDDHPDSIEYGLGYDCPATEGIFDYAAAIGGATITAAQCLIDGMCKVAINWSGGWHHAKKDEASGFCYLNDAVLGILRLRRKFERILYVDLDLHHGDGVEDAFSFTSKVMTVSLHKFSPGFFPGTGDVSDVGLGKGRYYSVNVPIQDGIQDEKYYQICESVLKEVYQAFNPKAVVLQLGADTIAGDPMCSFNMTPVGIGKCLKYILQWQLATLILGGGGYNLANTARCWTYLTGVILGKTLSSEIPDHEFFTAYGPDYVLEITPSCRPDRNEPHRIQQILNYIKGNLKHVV

[25] = tested on: U-937; experiment: Cytotoxicity against human U-937 cells assessed as cell death at 5 uM incubated for 24 hrs by PI staining based FACS analysis relative to control; assay type: functional
[26] = target: Histone deacetylase 4 (Homo sapiens) (UniProt P56524); experiment: Inhibition of HDAC4 (unknown origin) at 10 uM using fluorogenic peptide as substrate pre-incubated for 15 mins followed by substrate addition incubated for 30 mins by fluorescence assay; conditions: time 45.0 min
Histone deacetylase 4 (Homo sapiens), sequence (P56524 whole entry): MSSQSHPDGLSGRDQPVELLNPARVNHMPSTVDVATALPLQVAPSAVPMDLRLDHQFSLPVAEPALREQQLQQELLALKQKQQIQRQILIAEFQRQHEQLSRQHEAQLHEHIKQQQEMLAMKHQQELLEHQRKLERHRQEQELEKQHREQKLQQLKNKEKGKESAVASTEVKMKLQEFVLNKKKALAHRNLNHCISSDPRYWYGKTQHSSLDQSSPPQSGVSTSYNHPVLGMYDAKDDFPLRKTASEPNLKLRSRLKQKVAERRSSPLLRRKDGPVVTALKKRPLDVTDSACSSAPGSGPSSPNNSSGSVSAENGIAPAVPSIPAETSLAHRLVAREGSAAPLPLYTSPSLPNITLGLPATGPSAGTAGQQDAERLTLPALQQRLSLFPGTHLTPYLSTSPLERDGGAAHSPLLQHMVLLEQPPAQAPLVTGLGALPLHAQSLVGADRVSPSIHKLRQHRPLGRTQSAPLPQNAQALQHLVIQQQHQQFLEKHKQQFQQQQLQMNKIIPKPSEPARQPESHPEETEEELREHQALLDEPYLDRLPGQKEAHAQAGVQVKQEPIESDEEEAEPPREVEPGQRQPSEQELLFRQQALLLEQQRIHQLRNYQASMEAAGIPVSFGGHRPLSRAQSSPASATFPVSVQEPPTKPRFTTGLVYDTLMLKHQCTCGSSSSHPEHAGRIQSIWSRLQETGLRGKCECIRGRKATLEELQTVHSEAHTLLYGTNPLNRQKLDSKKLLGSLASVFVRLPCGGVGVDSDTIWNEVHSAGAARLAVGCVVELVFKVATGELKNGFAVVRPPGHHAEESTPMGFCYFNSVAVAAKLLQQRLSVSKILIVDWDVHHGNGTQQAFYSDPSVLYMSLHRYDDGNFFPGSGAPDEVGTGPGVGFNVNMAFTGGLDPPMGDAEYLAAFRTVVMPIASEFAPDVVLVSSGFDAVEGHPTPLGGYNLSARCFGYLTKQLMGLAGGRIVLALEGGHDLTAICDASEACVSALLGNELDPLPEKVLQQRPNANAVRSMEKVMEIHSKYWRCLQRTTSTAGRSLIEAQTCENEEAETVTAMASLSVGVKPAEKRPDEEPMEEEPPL

[27] = target: Histone deacetylase 2 (Homo sapiens) (UniProt Q92769); experiment: Inhibition of HDAC2 (unknown origin) at 10 uM using fluorogenic peptide as substrate pre-incubated for 15 mins followed by substrate addition incubated for 30 mins by fluorescence assay; conditions: time 45.0 min
Histone deacetylase 2 (Homo sapiens), sequence (Q92769 whole entry): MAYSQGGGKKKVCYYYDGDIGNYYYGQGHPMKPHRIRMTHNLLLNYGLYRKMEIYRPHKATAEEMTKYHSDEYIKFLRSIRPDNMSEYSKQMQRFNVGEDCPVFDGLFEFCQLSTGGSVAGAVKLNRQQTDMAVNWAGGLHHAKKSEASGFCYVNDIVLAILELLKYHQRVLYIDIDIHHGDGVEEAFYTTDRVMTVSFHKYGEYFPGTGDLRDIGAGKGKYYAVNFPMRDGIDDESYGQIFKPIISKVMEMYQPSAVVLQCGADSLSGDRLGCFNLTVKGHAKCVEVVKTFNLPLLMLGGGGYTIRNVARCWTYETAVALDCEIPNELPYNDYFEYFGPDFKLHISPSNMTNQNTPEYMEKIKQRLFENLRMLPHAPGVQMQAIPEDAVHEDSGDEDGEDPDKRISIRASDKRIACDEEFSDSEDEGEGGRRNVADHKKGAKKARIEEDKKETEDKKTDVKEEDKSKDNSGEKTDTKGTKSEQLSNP

[28] = tested on: U-937; experiment: Cytotoxicity against human U-937 cells assessed as cell death at 1 uM incubated for 24 hrs by PI staining based FACS analysis relative to control; assay type: functional
[29] = target: Histone deacetylase 3 (Homo sapiens) (UniProt O15379); experiment: Inhibition of HDAC3 (unknown origin) at 10 uM using fluorogenic peptide as substrate pre-incubated for 15 mins followed by substrate addition incubated for 30 mins by fluorescence assay; conditions: time 45.0 min
Histone deacetylase 3 (Homo sapiens), sequence (O15379 whole entry): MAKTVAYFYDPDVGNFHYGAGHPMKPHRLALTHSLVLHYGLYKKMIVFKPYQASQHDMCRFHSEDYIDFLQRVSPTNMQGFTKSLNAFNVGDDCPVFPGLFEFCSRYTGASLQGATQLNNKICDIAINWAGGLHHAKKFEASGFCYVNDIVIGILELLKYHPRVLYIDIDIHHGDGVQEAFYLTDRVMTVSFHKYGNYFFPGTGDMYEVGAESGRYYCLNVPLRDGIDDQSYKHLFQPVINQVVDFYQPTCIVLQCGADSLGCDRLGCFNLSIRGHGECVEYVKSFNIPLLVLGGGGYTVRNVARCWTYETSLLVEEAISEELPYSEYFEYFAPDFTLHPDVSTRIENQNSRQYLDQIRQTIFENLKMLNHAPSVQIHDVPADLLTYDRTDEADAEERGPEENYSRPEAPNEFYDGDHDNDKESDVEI

| Compound | Activity [1] | inhibition [4] | IC50 [5] | Activity [6] | Activity [7] | Activity [8] | Activity [10] | Activity [11] | IC50 [13] | inhibition [14] | IC50 [15] | Activity [16] | Activity [20] | Activity [21] | also measured |
| --- | --- | --- | --- | --- | --- | --- | --- | --- | --- | --- | --- | --- | --- | --- | --- |
| O=C(CCCCCN1C(=O)CC(c2ccc(Cl)c(Cl)c2)S(=O)(=O)c2ccccc21)NO (racemic) | Active | 96.9% | 88.2 nM | Active | Active | Active | Active | Active | 12.3 nM | 99.5% | 27.1 nM | Active | Active | Active | Activity [2]: Active; IC50 [3]: 18500 nM; Activity [9]: Active; Activity [12]: ~6%; Activity [17]: Active; IC50 [18]: 13900 nM; Activity [19]: Active |
| O=C(CCCCCN1C(=O)CC(c2ccccc2)S(=O)(=O)c2ccccc21)NO (racemic) | Active | 99.1% | 115 nM | Active | Active | Active | Active | ~75% | 23.2 nM | 98.8% | 38.6 nM | Active | Active | Active | Activity [22]: Active; Activity [23]: Active; inhibition [24]: 87.3%; Activity [25]: ~12%; inhibition [26]: 51.4%; inhibition [27]: 100%; Activity [28]: 12%; inhibition [29]: 99.3% |
